Laboratory results from PubChem BioAssay (NCI).
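Where inhibition never reached the appropriate level, the endpoint shown equals the highest concentration tested. Otherwise, values were interpolated linearly from a five-concentration, 48-hour dose response in 96-well plates. GI50 is the concentration that inhibits growth by half. At the TGI there is no net growth.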

How the values were obtained:
Test in all cases: NCI anticancer screen, dose series, 48 h
TK-10 renal = system: TK-10 renal
MALME-3M melanoma = system: MALME-3M melanoma
COLO 205 colon = system: COLO 205 colon
HT29 colon = system: HT29 colon
CCRF-CEM leukemia = system: CCRF-CEM leukemia
NCI-H522 lung = system: NCI-H522 lung
SN12C renal = system: SN12C renal
HCT-15 colon = system: HCT-15 colon
K-562 leukemia = system: K-562 leukemia
BT-549 breast = system: BT-549 breast

O=C1C=CC(=O)N1CCCCCCCCCCN1C(=O)C=CC1=O
GI50 (TK-10 renal): 22.9 µM
TGI (TK-10 renal): 69 µM
GI50 (MALME-3M melanoma): 2.05 µM
TGI (MALME-3M melanoma): 6.49 µM
GI50 (COLO 205 colon): 2.15 µM
TGI (COLO 205 colon): 5.62 µM
GI50 (HT29 colon): 4.67 µM
TGI (HT29 colon): 26.7 µM
GI50 (CCRF-CEM leukemia): 4.05 µM
TGI (CCRF-CEM leukemia): > 100 µM
GI50 (NCI-H522 lung): 1.6 µM
TGI (NCI-H522 lung): 3.41 µM
GI50 (SN12C renal): 15.1 µM
TGI (SN12C renal): 29.5 µM
GI50 (HCT-15 colon): 10.3 µM
TGI (HCT-15 colon): 25.7 µM
GI50 (K-562 leukemia): 7.63 µM
TGI (K-562 leukemia): 67.9 µM

Clc1ccc(CCn2cncn2)c(Cl)c1
TGI (TK-10 renal): > 100 µM
TGI (COLO 205 colon): > 100 µM
TGI (HT29 colon): > 100 µM
TGI (CCRF-CEM leukemia): > 100 µM
TGI (NCI-H522 lung): > 100 µM
TGI (SN12C renal): > 100 µM
TGI (HCT-15 colon): > 100 µM
TGI (K-562 leukemia): > 100 µM

Cn1c(-c2ccccc2)c/c(=N\NS(C)(=O)=O)c2cc(S(=O)(=O)O)ccc21
TGI (TK-10 renal): > 100 µM
TGI (MALME-3M melanoma): > 100 µM
TGI (COLO 205 colon): > 100 µM
TGI (HT29 colon): > 100 µM
TGI (CCRF-CEM leukemia): > 100 µM
TGI (NCI-H522 lung): > 100 µM
TGI (SN12C renal): > 100 µM
TGI (HCT-15 colon): > 100 µM
TGI (K-562 leukemia): > 100 µM

COc1ccc(C2SC(C)C(=O)N2NC(=O)C(O)c2ccccc2)cc1 (stereo not given)
GI50 (TK-10 renal): > 100 µM
TGI (TK-10 renal): > 100 µM
GI50 (COLO 205 colon): > 100 µM
TGI (COLO 205 colon): > 100 µM
GI50 (HT29 colon): > 100 µM
TGI (HT29 colon): > 100 µM
GI50 (CCRF-CEM leukemia): > 100 µM
TGI (CCRF-CEM leukemia): > 100 µM
GI50 (NCI-H522 lung): > 100 µM
TGI (NCI-H522 lung): > 100 µM
GI50 (BT-549 breast): > 100 µM
TGI (BT-549 breast): > 100 µM
GI50 (SN12C renal): > 100 µM
TGI (SN12C renal): > 100 µM
GI50 (HCT-15 colon): > 100 µM
TGI (HCT-15 colon): > 100 µM
GI50 (K-562 leukemia): > 100 µM
TGI (K-562 leukemia): > 100 µM

N#Cc1ccccc1/C=N/O
TGI (TK-10 renal): > 100 µM
TGI (MALME-3M melanoma): > 100 µM
TGI (COLO 205 colon): > 74.9 µM
TGI (HT29 colon): > 100 µM
TGI (CCRF-CEM leukemia): > 85 µM
TGI (NCI-H522 lung): > 100 µM
TGI (SN12C renal): > 100 µM
TGI (HCT-15 colon): > 56.3 µM
TGI (K-562 leukemia): > 65.6 µM

Cn1c2ccccc2c(=S)c2cc(NC(=O)CCCCC(=O)Nc3ccc4c(c3)c(=S)c3ccccc3n4C)ccc21
TGI (TK-10 renal): > 100 µM
TGI (COLO 205 colon): > 100 µM
TGI (HT29 colon): > 100 µM
TGI (CCRF-CEM leukemia): > 100 µM
TGI (NCI-H522 lung): > 100 µM
TGI (BT-549 breast): > 100 µM
TGI (SN12C renal): > 100 µM
TGI (HCT-15 colon): > 100 µM
TGI (K-562 leukemia): > 100 µM

O=c1[nH]c(C2CCCCC2)nc2cc(Cl)ccc12
TGI (TK-10 renal): > 100 µM
TGI (MALME-3M melanoma): > 100 µM
TGI (COLO 205 colon): > 100 µM
TGI (HT29 colon): > 100 µM
TGI (NCI-H522 lung): > 100 µM
TGI (SN12C renal): > 100 µM
TGI (HCT-15 colon): > 100 µM
TGI (K-562 leukemia): > 100 µM

O=C1[C@H](c2ccccc2)C2c3ccccc3CCN12 (stereo not given in full)
GI50 (TK-10 renal): > 100 µM
TGI (TK-10 renal): > 100 µM
GI50 (MALME-3M melanoma): > 100 µM
TGI (MALME-3M melanoma): > 100 µM
GI50 (COLO 205 colon): > 100 µM
TGI (COLO 205 colon): > 100 µM
GI50 (HT29 colon): > 100 µM
TGI (HT29 colon): > 100 µM
GI50 (CCRF-CEM leukemia): > 100 µM
TGI (CCRF-CEM leukemia): > 100 µM
GI50 (NCI-H522 lung): > 100 µM
TGI (NCI-H522 lung): > 100 µM
GI50 (SN12C renal): > 100 µM
TGI (SN12C renal): > 100 µM
GI50 (HCT-15 colon): > 100 µM
TGI (HCT-15 colon): > 100 µM
GI50 (K-562 leukemia): > 100 µM
TGI (K-562 leukemia): > 100 µM

FC(F)(F)c1ccccc1C=NC12CC3CC(CC(C3)C1)C2
TGI (TK-10 renal): > 100 µM
TGI (MALME-3M melanoma): > 100 µM
TGI (COLO 205 colon): > 100 µM
TGI (HT29 colon): > 100 µM
TGI (SN12C renal): > 100 µM
TGI (HCT-15 colon): > 100 µM
TGI (K-562 leukemia): > 100 µM

NNc1nc(-c2ccccn2)nc2sc3c(c12)CCCCCC3
GI50 (TK-10 renal): 9.16 µM
TGI (TK-10 renal): > 100 µM
GI50 (COLO 205 colon): 5.07 µM
TGI (COLO 205 colon): > 100 µM
GI50 (HT29 colon): 5.53 µM
TGI (HT29 colon): > 100 µM
GI50 (CCRF-CEM leukemia): 4.42 µM
TGI (CCRF-CEM leukemia): > 100 µM
GI50 (NCI-H522 lung): 12.1 µM
TGI (NCI-H522 lung): 68.3 µM
GI50 (BT-549 breast): 9.73 µM
TGI (BT-549 breast): > 100 µM
GI50 (SN12C renal): 6.36 µM
TGI (SN12C renal): > 100 µM
GI50 (HCT-15 colon): 1.12 µM
TGI (HCT-15 colon): > 100 µM
GI50 (K-562 leukemia): 3.78 µM
TGI (K-562 leukemia): > 100 µM

Cc1ccc(S(=O)(=O)NC(=O)Nc2nc(Cl)cc(Cl)n2)cc1
TGI (TK-10 renal): > 100 µM
TGI (MALME-3M melanoma): > 100 µM
TGI (COLO 205 colon): > 100 µM
TGI (CCRF-CEM leukemia): > 100 µM
TGI (NCI-H522 lung): 23.9 µM
TGI (SN12C renal): > 100 µM
TGI (K-562 leukemia): > 100 µM

C#CCOc1c(OC)cc(C(=O)/C(C)=C/c2cccc(N=[N+]=[N-])c2)cc1OC
GI50 (TK-10 renal): 0.325 µM
TGI (TK-10 renal): 38.9 µM
GI50 (COLO 205 colon): 0.3 µM
TGI (COLO 205 colon): 2.98 µM
GI50 (HT29 colon): 0.0576 µM
TGI (HT29 colon): 73.4 µM
GI50 (CCRF-CEM leukemia): 0.117 µM
TGI (CCRF-CEM leukemia): > 100 µM
GI50 (NCI-H522 lung): 0.155 µM
TGI (NCI-H522 lung): 0.8 µM
GI50 (BT-549 breast): 0.131 µM
TGI (BT-549 breast): 7.1 µM
GI50 (SN12C renal): 0.677 µM
TGI (SN12C renal): > 100 µM
GI50 (HCT-15 colon): 0.0499 µM
TGI (HCT-15 colon): > 100 µM
GI50 (K-562 leukemia): 0.0383 µM
TGI (K-562 leukemia): > 100 µM

O=C(Cc1nc2ccccc2s1)NC12CC3CC(CC(C3)C1)C2
TGI (TK-10 renal): > 100 µM
TGI (MALME-3M melanoma): > 100 µM
TGI (HT29 colon): > 100 µM
TGI (CCRF-CEM leukemia): > 100 µM
TGI (NCI-H522 lung): > 100 µM
TGI (SN12C renal): > 100 µM
TGI (HCT-15 colon): > 100 µM
TGI (K-562 leukemia): > 100 µM

[O-][N+]1=C(c2ccccc2)COc2ccccc21
TGI (TK-10 renal): > 100 µM
TGI (MALME-3M melanoma): > 100 µM
TGI (COLO 205 colon): > 100 µM
TGI (HT29 colon): > 100 µM
TGI (CCRF-CEM leukemia): > 100 µM
TGI (NCI-H522 lung): > 100 µM
TGI (SN12C renal): > 100 µM
TGI (HCT-15 colon): > 100 µM
TGI (K-562 leukemia): > 100 µM

COc1cc([C@@H]2c3cc4c(cc3[C@@H](NC(=O)c3ccc([N+](=O)[O-])cc3)C3COC(=O)[C@@H]32)OCO4)cc(OC)c1O (stereo not given in full)
TGI (TK-10 renal): 5.86 µM
TGI (MALME-3M melanoma): 4.89 µM
TGI (COLO 205 colon): 10.4 µM
TGI (HT29 colon): 5.68 µM
TGI (NCI-H522 lung): 2.09 µM
TGI (SN12C renal): 1.37 µM
TGI (HCT-15 colon): 6.43 µM
TGI (K-562 leukemia): > 100 µM

CCC1=C[C@H]2CN(CCc3c([nH]c4ccccc34)[C@@](C(=O)OC)(c3cc4c(cc3OC)N(C)[C@H]3[C@@](O)(C(=O)OC)[C@H](OC(C)=O)[C@]5(CC)[C@@H]6C[C@@H]6CN6CC[C@]43[C@@H]65)C2)C1
GI50 (TK-10 renal): 3.33 µM
TGI (TK-10 renal): 8.13 µM
GI50 (MALME-3M melanoma): 0.249 µM
TGI (MALME-3M melanoma): 5.82 µM
GI50 (HT29 colon): 0.0113 µM
TGI (HT29 colon): 2.91 µM
GI50 (CCRF-CEM leukemia): 0.0495 µM
TGI (CCRF-CEM leukemia): 4.48 µM
GI50 (NCI-H522 lung): 0.011 µM
TGI (NCI-H522 lung): 0.302 µM
GI50 (BT-549 breast): 0.106 µM
TGI (BT-549 breast): 4.29 µM
GI50 (SN12C renal): 0.0932 µM
TGI (SN12C renal): 4.99 µM
GI50 (HCT-15 colon): 0.0738 µM
TGI (HCT-15 colon): 3.31 µM

Cc1ccccc1C(C#N)/C(=N/NC(=O)C(=O)NN)C(=O)Nc1cccc(C(F)(F)F)c1 (stereo not given)
TGI (TK-10 renal): > 100 µM
TGI (MALME-3M melanoma): > 100 µM
TGI (COLO 205 colon): > 100 µM
TGI (HT29 colon): > 100 µM
TGI (CCRF-CEM leukemia): > 100 µM
TGI (NCI-H522 lung): > 100 µM
TGI (SN12C renal): > 100 µM
TGI (HCT-15 colon): > 100 µM
TGI (K-562 leukemia): > 100 µM

CCOC(=O)C1=C(N)Oc2cc(OC)ccc2C1c1ccc(F)c(F)c1 (stereo not given)
GI50 (TK-10 renal): 9.5 µM
TGI (TK-10 renal): 21.8 µM
GI50 (MALME-3M melanoma): 10.3 µM
TGI (MALME-3M melanoma): 24.1 µM
GI50 (COLO 205 colon): 1.05 µM
TGI (COLO 205 colon): 8.97 µM
GI50 (HT29 colon): 0.481 µM
TGI (HT29 colon): 11 µM
GI50 (CCRF-CEM leukemia): 2.26 µM
TGI (CCRF-CEM leukemia): 19.7 µM
GI50 (NCI-H522 lung): 0.498 µM
TGI (NCI-H522 lung): 10.2 µM
GI50 (BT-549 breast): 2.05 µM
TGI (BT-549 breast): 16.3 µM
GI50 (SN12C renal): 4.97 µM
TGI (SN12C renal): 19.5 µM
GI50 (HCT-15 colon): 0.503 µM
TGI (HCT-15 colon): 14.3 µM
